These results are taken from PubChem BioAssay (NCI).

Experiment in all cases: NCI-60 cell line screen, 48 h
For experiment [1], the system named is MCF7 breast.
Experiment [2] concerns MDA-MB-231 breast.
The test system of experiment [3] is NCI/ADR-RES ovarian.
Experiment [4] relates to T-47D breast.
Experiment [5] deals with MDA-N.

Several values for one entry are separate records, joined by “and”; a condition that tells them apart may be missing. Equal values may be shown once.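 Compound exposure: 48 hours, 5 concentrations, 96-well plates. Here, GI50 denotes the concentration required for 50% inhibition of growth. At the TGI there is no net growth.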

As for `CCN=c1cc2sc3cc(NCC)c(C)cc3nc-2cc1C`, the GI50 in experiment [1] is 0.242 µM; in experiment [2] it was 0.334 µM; in experiment [3], 1.77 µM; in experiment [4], 0.58 µM. The TGI in experiment [1] stood at 0.937 µM; in experiment [2], 11.1 µM; in experiment [3] it was 7.31 µM; in experiment [4], 10.5 µM.
With `CC[Si](CC)(CC)OC[C@]1([C@@H]2COC(C)(C)O2)CC=CC(=O)O1`, the GI50 in experiment [1] was 43.6 µM; in experiment [2], 51.1 µM; in experiment [3] it was 32.1 µM; in experiment [4] it was above 100 µM. For the same compound, the TGI in experiment [1], in experiment [2], in experiment [3] and in experiment [4] was above 100 µM each time.
For `O=P([O-])(O)OP(=O)([O-])O.[NH-][C@@H]1CCCC[C@H]1[NH-].[Pt+4]`, the GI50 in experiment [1] was 7.78 µM and 2.93 µM; in experiment [2] it was above 100 µM; in experiment [3], 38.4 µM and 5.2 µM; in experiment [4] it was 18.4 µM and 4.82 µM. In addition, the TGI in experiment [1] is above 100 µM; in experiment [2], above 100 µM; in experiment [3], above 100 µM; in experiment [4], > 100 µM and 39.5 µM.
Take `NC(=N\N=C/c1cccc([N+](=O)[O-])c1)/C(N)=N\N=C/c1cccc([N+](=O)[O-])c1`: the GI50 in experiment [1], in experiment [2], in experiment [3] and in experiment [4] was above 100 µM throughout. Further, the TGI in experiment [1], in experiment [2], in experiment [3] and in experiment [4] was above 100 µM each time.
With `O=C(Nc1ccc(F)cc1F)c1cc(Br)ccc1O`, the GI50 was 2.56 µM in experiment [1], 2.26 µM in experiment [2], 2.86 µM in experiment [3] and 1.81 µM in experiment [4]. Besides, the TGI is above 100 µM in experiment [1], 7.95 µM in experiment [2], 18.2 µM in experiment [3] and 7.19 µM in experiment [4].
Regarding `O=C(CC12CC3CC(CC(C3)C1)C2)NCCOCCOCCOCCNC(=O)c1cc2c(o1)C(=O)c1ccccc1C2=O`, the GI50 in experiment [1] was 0.808 µM; in experiment [2], 2.43 µM; in experiment [3], 2.47 µM; in experiment [4], 1.74 µM. Also, the TGI in experiment [1] was 2.73 µM; in experiment [2], 9.81 µM; in experiment [3], 7.65 µM; in experiment [4], 5.86 µM.
For the compound `O=C(N/N=C/c1ccccc1Cl)c1ccccc1Nc1ccnc(C(F)(F)F)c1`, the GI50 was 0.706 µM in experiment [1], 1.93 µM in experiment [2], 2.16 µM in experiment [3] and 1.33 µM in experiment [4]. Besides, the TGI was determined as 4.52 µM in experiment [1], 6.94 µM in experiment [2], 9.32 µM in experiment [3] and 6.41 µM in experiment [4].
For `COc1cc2cc(C(=O)Nc3cc(N)c4ccccc4c3CCCl)[nH]c2c(OC)c1OC`, the GI50 in experiment [1] is 0.00869 µM; in experiment [5], 0.0568 µM; in experiment [3], 0.0329 µM; in experiment [4], 0.0372 µM. Further, the TGI in experiment [1] was determined as 0.374 µM; in experiment [5], 0.219 µM; in experiment [3], 1.91 µM; in experiment [4] it was 0.237 µM.
With `O=C1NC(=S)NC(=O)C1=Cc1cccc2cc3ccccc3cc12`, the TGI came out at 3.69 µM in experiment [2], 4.69 µM in experiment [5], 5.89 µM in experiment [3] and 3.86 µM in experiment [4].
On to `C[C@@H]1N=C(c2ccc(Br)cc2)Nc2nc3ccccn3c2C1=O`, for which the GI50 in experiment [1] is 2.99 µM; in experiment [2] it was 6.08 µM; in experiment [3], 7.45 µM; in experiment [4], 4.62 µM. In addition, the TGI in experiment [1], in experiment [2], in experiment [3] and in experiment [4] was above 100 µM each time.
On to `C=CCN1C=CC(=O)[C@H](O[Si](C)(C)C(C)(C)C)[C@@H]1/C=C/c1ccccc1`, for which the GI50 in experiment [1] is 8.77 µM; in experiment [2], 14.6 µM; in experiment [3], 13.3 µM; in experiment [4], 4.04 µM. In addition, the TGI in experiment [1] is 21.9 µM; in experiment [2] it was 29.8 µM; in experiment [3] it was 26.8 µM; in experiment [4] it was 17 µM.
On to `COc1cc2c(cc1OCCCCCCN1CCN(c3ncnc4ccccc34)CC1)N=CC1CCCN1C2=O` (stereo not drawn), for which the GI50 is below 0.0222 µM in experiment [1], 0.0425 µM in experiment [2], 0.899 µM in experiment [3] and 0.0237 µM in experiment [4]. Also, the values for the TGI in experiment [1], in experiment [2] and in experiment [4] were 0.597 µM, 0.394 µM and 0.0792 µM, respectively.
Take `COC(=O)c1c2c(c(C)[n+]([O-])c1C)C(=O)C=C(NCc1ccc(OC)cc1)C2=O`: the GI50 was 0.72 µM in experiment [1], 0.959 µM in experiment [2], 1.03 µM in experiment [3] and 0.994 µM in experiment [4]. Also, the TGI in experiment [1] is 2.14 µM; in experiment [2], 5.41 µM; in experiment [3], 4.85 µM; in experiment [4], 4.18 µM.
Turning to `COc1ccc(-c2nc3ncccn3c2/C=C/C(=O)c2cc(OC)c(OC)c(OC)c2)cc1`, the GI50 is 1.14 µM in experiment [1], 2.73 µM in experiment [2], 1.56 µM in experiment [3] and 2.53 µM in experiment [4]. In addition, the TGI in experiment [1] amounted to 3.32 µM; in experiment [2], 17.2 µM; in experiment [3], 4.86 µM; in experiment [4], 14.9 µM.
As for `CC1(C)CC(n2cnc(-c3ccc(F)cc3)c2-c2ccnc(N)n2)CC(C)(C)N1`, the GI50 in experiment [1] was 6.01 µM; in experiment [2] it was above 22.7 µM; in experiment [3] it was above 25 µM; in experiment [4], 24.3 µM. Besides, the TGI in experiment [1] was above 19.6 µM; in experiment [2], above 25 µM; in experiment [3], above 25 µM; in experiment [4], above 25 µM.
Take `c1cc(OCCN2CCCCC2)ccc1CNc1ccc2nc(CCC3CCCCC3)[nH]c2c1`: the GI50 in experiment [1] is 1.7 µM; in experiment [2], 1.58 µM; in experiment [3], 2.21 µM; in experiment [4], 1.71 µM. Further, the TGI in experiment [1] was 4.26 µM; in experiment [2], 3.02 µM; in experiment [3], 5.74 µM; in experiment [4], 4.52 µM.
